Data: patent publication US4616081A, “Cephalosporin compounds” (Asahi Kasei Kogyo Kabushiki Kaisha, priority 1982, dated 1986)

What was measured:
[1] = acute toxicity test using mice, intraperitoneal; details: mouse, in vivo, ip
Excerpt: In addition to excellent antibacterial activity, the compounds of the present invention are low in toxicity. For example, in acute toxicity test using mice, the following results were obtained with Compound Nos. 2, 3, 7, 14, 15 and 23 which were intraperitoneally administered.

[2] = system: Staph. aureus MS27; assay: MIC against Staph. aureus MS27; type: cell-based; details: Bacterial count inoculated 10^6 cells/ml
Protocol: (§1) Nextly, antibacterial activity or minimum inhibitory concentration (MIC) was measured and the results are shown in Table 1 with respect to the following representative compounds according to the present invention. [drawing 19]
(§2) With respect to Compound Nos. 14 and 15, antibacterial activity or minimum inhibitory concentration (MIC) was measured and the results are shown in Table 2. [drawing 21]

[3] = system: Enterobact. aerogenes 0655; assay: MIC against Enterobact. aerogenes 0655; type: cell-based; details: Bacterial count inoculated 10^6 cells/ml
Protocol: as §1, §2

[4] = system: Bac. subtilis ATCC 6633; assay: MIC against Bac. subtilis ATCC 6633; type: cell-based; details: Bacterial count inoculated 10^6 cells/ml
Protocol: as §2

[5] = system: Staph. aureus ATCC 6538P; assay: MIC against Staph. aureus ATCC 6538P; type: cell-based; details: Bacterial count inoculated 10^6 cells/ml
Protocol: as §1, §2

[6] = system: Klebs. pneumoniae ATCC 10031; assay: MIC against Klebs. pneumoniae ATCC 10031; type: cell-based
Protocol: as §1, §2

[7] = system: Serratia marcescens; assay: MIC against Serratia marcescens; type: cell-based
Protocol: as §1, §2

[8] = system: E. coli NIHJ-JC2; assay: MIC against E. coli NIHJ-JC2; type: cell-based
Protocol: as §1, §2

[9] = system: Proteus rettgeri ACR; assay: MIC against Proteus rettgeri ACR; type: cell-based
Protocol: as §1, §2

[10] = system: Sarcina lutea ATCC 9341; assay: MIC against Sarcina lutea ATCC 9341; type: cell-based; details: Bacterial count inoculated 10^6 cells/ml
Protocol: as §1, §2

[11] = system: Salm. enteritidis Gaertner; assay: MIC against Salm. enteritidis Gaertner; type: cell-based; details: Bacterial count inoculated 10^6 cells/ml
Protocol: as §1, §2

[12] = system: E. coli W3630; assay: MIC against E. coli W3630; type: cell-based
Protocol: as §1, §2

[13] = system: Enterobact. cloacae GN336; assay: MIC against Enterobact. cloacae GN336; type: cell-based
Protocol: as §1, §2

[14] = system: Strept. pyogenes NY5; assay: MIC against Strept. pyogenes NY5; type: cell-based; details: Bacterial count inoculated 10^6 cells/ml
Protocol: as §1, §2

[15] = maximum blood concentration after oral administration in Wister rats (HPLC and Bioassay); type: in vivo; details: Wister rat, fasted, 30 mg/kg, solution of pH 7 in phosphate buffer
Protocol: Further in the compounds according to the present invention, intestinal absorption is improved by the introduction of amino acids at the 3-position thereof. For example, comparison of the maximum blood concentration of the Compound Nos. 2, 3, 7, 8, 14, 15 and 23 with that of Comparative Compound (b) establishes and affirms the effects, as is shown below. In the above test, the method for measurement of blood concentration was as follows. Rate: Wister rat weighing 170 to 220 g Dose: 30 mg/kg Wister rats were fasted from the previous night but freely accessible to water. Each of drugs was administered as a solution of pH 7 in a phosphate buffer, when orally administered. The blood concentration was measured in accordance with the High Performance Liquid Chromatography (HPLC) method and the Bioassay method by using E. coli as bacteria for test.

[16] = system: Citrobact. freundii GN346; assay: MIC against Citrobact. freundii GN346; type: cell-based; details: Bacterial count inoculated 10^6 cells/ml
Protocol: as §1, §2

[17] = system: Shigella sonnei E33; assay: MIC against Shigella sonnei E33; type: cell-based
Protocol: as §1, §2

[18] = system: E. coli W3630 PS3; assay: MIC against E. coli W3630 PS3; type: cell-based; details: Bacterial count inoculated 10^6 cells/ml
Protocol: as §1, §2

[19] = system: Ps. aeruginosa 0812 M2; assay: MIC against Ps. aeruginosa 0812 M2; type: cell-based; details: Bacterial count inoculated 10^6 cells/ml
Protocol: as §1, §2

[20] = system: Proteus morganii 0239; assay: MIC against Proteus morganii 0239; type: cell-based; details: Bacterial count inoculated 10^6 cells/ml
Protocol: as §1, §2

[21] = system: E. coli W3630 RGN238; assay: MIC against E. coli W3630 RGN238; type: cell-based
[22] = system: E. coli W3630 RGN14; assay: MIC against E. coli W3630 RGN14; type: cell-based
[23] = system: E. coli 0205; assay: MIC against E. coli 0205; type: cell-based
[24] = Bacterial count inoculated 10^6 cells/ml
[25] = Table 3, second listing of the strain, head prints 10^6 cells/ml

Row | Compound | LD50 [1] [mg/kg] | Minimum Inhibitory Concentration (MIC) [2] | Minimum Inhibitory Concentration (MIC) [3] | Minimum Inhibitory Concentration (MIC) [4] | Minimum Inhibitory Concentration (MIC) [5] | Minimum Inhibitory Concentration (MIC) [6, 24] | Minimum Inhibitory Concentration (MIC) [7, 24] | Minimum Inhibitory Concentration (MIC) [8, 24] | Minimum Inhibitory Concentration (MIC) [9, 24] | Minimum Inhibitory Concentration (MIC) [10] | Minimum Inhibitory Concentration (MIC) [11] | Minimum Inhibitory Concentration (MIC) [12, 24] | Minimum Inhibitory Concentration (MIC) [13, 24] | Minimum Inhibitory Concentration (MIC) [14] | Cmax [15] [ng/mL] | Minimum Inhibitory Concentration (MIC) [16] | Minimum Inhibitory Concentration (MIC) [17, 24] | Minimum Inhibitory Concentration (MIC) [18] | Minimum Inhibitory Concentration (MIC) [19] | Minimum Inhibitory Concentration (MIC) [20] | also measured
1 | CO/N=C(\C(=O)N[C@@H]1C(=O)N2C(C(=O)O)=C(C[n+]3ccc(CC(N)C(=O)O)cc3)CS[C@H]12)c1csc(N)n1 (stereo partly drawn) [Compound No. 14, 7β-[(Z)-2-(2-amino-4-thiazolyl)-2-(methoxyimino)acetamido]-3-[4-(2-amino-2-carboxy)ethyl-1-pyridiummethyl]-3-cephem-4-carboxylic acid] | 9000 to 10000 | 3.1 | 0.2 | ≤ 0.1 | 6.3 | ≤ 0.1 | 0.1 | 0.1 | 0.2 | 0.8 | ≤ 0.1 | ≤ 0.1 | 0.2 | 0.1 | 9000 | 12.5 | ≤ 0.1 | ≤ 0.1 | 3.1 | 0.2 | 
2 | CO/N=C(\C(=O)N[C@@H]1C(=O)N2C(C(=O)O)=C(C[n+]3cccc(CC(N)C(=O)O)c3)CS[C@H]12)c1csc(N)n1 (some centres unmarked) [Compound No. 15] | 10000 to 12000 | 6.3 | 0.2 | 1.6 | 3.1 | 0.1 | 0.4 | 0.2 | 0.2 | ≤ 0.1 | ≤ 0.1 | 0.2 | 0.2 | ≤ 0.1 | 12000 | 12.5 | ≤ 0.1 | 0.1 | 6.3 | 0.2 | 
3 | CO/N=C(\C(=O)N[C@@H]1C(=O)N2C(C(=O)O)=C(CSc3ncc(C[C@H](N)C(=O)O)[nH]3)CS[C@H]12)c1csc(N)n1 [Compound No. 23] | 10000 to 12000 |  |  |  |  | ≤ 0.2 | ≤ 0.2 | ≤ 0.2 | ≤ 0.2 |  |  | ≤ 0.2 | ≤ 0.2 |  | 6000 |  | ≤ 0.2 |  |  |  | Minimum Inhibitory Concentration (MIC) [21, 24]: ≤ 0.2; Minimum Inhibitory Concentration (MIC) [21, 25]: 25; Minimum Inhibitory Concentration (MIC) [6, 25]: 1.6; Minimum Inhibitory Concentration (MIC) [7, 25]: > 100; Minimum Inhibitory Concentration (MIC) [8, 25]: 12.5; Minimum Inhibitory Concentration (MIC) [9, 25]: 25; Minimum Inhibitory Concentration (MIC) [12, 25]: 6.3; Minimum Inhibitory Concentration (MIC) [13, 25]: 25; Minimum Inhibitory Concentration (MIC) [22, 24]: ≤ 0.2; Minimum Inhibitory Concentration (MIC) [22, 25]: 6.3; Minimum Inhibitory Concentration (MIC) [23, 24]: 0.4; Minimum Inhibitory Concentration (MIC) [23, 25]: 12.5; Minimum Inhibitory Concentration (MIC) [17, 25]: 1.6
